From patent US8545841B2, “Methods and compositions for the treatment of cancers and pathogenic infections” (University of Florida Research Foundation, Inc., priority 2008, dated 2013)

How the values were obtained:
P. gingivalis = test: Trafficking of P. gingivalis to lysosomes in human coronary arterial endothelial cells (HCAEC); type: cell-based, Porphyromonas gingivalis; settings: HCAEC exposed to P. gingivalis; replicative vacuole in untreated cells
Excerpt: FIGS. 7A-7D. The inhibition of autophagy by AI-1 and AI-2 results in the trafficking of P. gingivalis to lysosomes. Human coronary arterial endothelial cells (HCAEC) were exposed to P. gingivalis (Pg) in the absence (FIG. 7A) and presence of 3-methyladenine (3MA) (FIG. 7B) and compounds AI-1 (FIG. 7C) and AI-2 (FIG. 7D).
We have previously shown that autophagy is required for P. gingivalis to thrive within host endothelial cells (Dorn, B. R., Dunn, W. A., Jr., and Progulske-Fox, A. “Porphyromonas gingivalis traffics to autophagosomes in human coronary artery endothelial cells” Infect Immun, 2001, Vol. 69, pp. 5698-5708). In fact, in the absence of autophagy, this bacterium fails to form a “replicative vacuole” and is instead transported to lysosomes where the bacterium is destroyed by digestive enzymes. We then tested the efficacy of AI-1 and AI-2 to promote the intracellular movements of this intracellular pathogen to the destructive lysosomes.

[1] = test system: Saos-2 and MDA-MB468 cells; test: Starvation induced (autophagy-mediated) protein degradation, pulse-chase with 14C-leucine; type: cell-based; settings: starved cells, FIG. 4
Description: FIG. 4. Atg-4-targeted drugs suppress starvation induced (autophagy-mediated) protein degradation. Saos-2 and MDA-MB468 cells were incubated under nutrient fed and starved conditions in the presence and absence of 3-methyladenine (3MA), AI-1 and AI-2 and the rates of protein degradation measure by pulse-chase methodology with 14C-leucine. Bars=mean±SEM. n=4-6 trials. The Atg4 compounds were obtained from the National Cancer Institute (NCI) and then tested for their ability to suppress autophagy by observing the presence of autophagosomes in Saos-2 osteosarcoma and MDA-MB468 breast carcinoma cell lines stabling expressing Atg8 tagged with a green fluorescent protein (GFP-Atg8). Upon the onset of autophagy, Atg8 becomes lipidated being anchored to the autophagosome membrane whereby this protein then recruits additional membranes for expanding the size of the vacuoles and thus, regulating the degradative amplitude of autophagy. […] Compared to 70% of the starved cells containing autophagic vacuoles, less than 20% of those starved cells treated with AI-1 or AI-2 contained these vacuoles. These observations were consistent with the negative effects of these compounds on the lipidation of Atg8 (FIG. 3). Saos-2 cells expressing GFP-Atg8 were starved for amino acids for 2-6 h in the absence and presence of 3-methyladenine and the Atg4 compounds. […]

MDA-MB468 cells = test: Size and distribution of autophagic vacuoles by electron microscopy; type: cell-based; settings: starved MDA-MB468 cells
Description: FIGS. 5A-5D. Atg-4-targeted drugs reduce the size of autophagic vacuoles. MDA-MB468 cells were incubated under nutrient fed (FIG. 5A) and starved (medium lacking amino acids and serum; FIG. 5B) conditions in the presence and absence of AI-1 (FIG. 5C) and AI-2 (FIG. 5D), Autophagic vacuoles (arrows) were visualized by electron microscopy. The “black” reaction product of CMPase, a lysosomal enzyme, can be seen within small lysosomes, many larger autophagic vacuoles (arrows) as well as the Golgi apparatus (Go).
The Atg4 compounds were obtained from the National Cancer Institute (NCI) and then tested for their ability to suppress autophagy by observing the presence of autophagosomes in Saos-2 osteosarcoma and MDA-MB468 breast carcinoma cell lines stabling expressing Atg8 tagged with a green fluorescent protein (GFP-Atg8). Upon the onset of autophagy, Atg8 becomes lipidated being anchored to the autophagosome membrane whereby this protein then recruits additional membranes for expanding the size of the vacuoles and thus, regulating the degradative amplitude of autophagy. […] Compared to 70% of the starved cells containing autophagic vacuoles, less than 20% of those starved cells treated with AI-1 or AI-2 contained these vacuoles. These observations were consistent with the negative effects of these compounds on the lipidation of Atg8 (FIG. 3). […]

HuH7 hepatoma cells = test: Survival of nutrient-starved cells, crystal violet staining; type: cell-based; settings: HuH7, nutrient-deprived serum-free medium, 24 hours
Description: (§1) FIGS. 6A-B. Atg-4-targeted drugs decrease cell survival of nutrient deprived cancer cells. Control breast epithelial MCF10A, MDA-MB 468 breast carcinoma, Saos2 osteosarcoma, and HuH7 hepatoma were incubated under nutrient fed and starved conditions in the presence and absence of AI-1 and AI-2. The number of viable cells on the plate relative to fed after 24 hrs was quantified by crystal violet staining. Bars=mean±SEM, n=4-6 trials.
(§2) During the early stages of tumor growth prior to vascularization, cancer cells are exposed to conditions lacking nutrients and growth factors. These cells are able to survive these conditions by activating autophagy, thereby degrading endogenous macromolecules and recycling the nutrients. In order to simulate these conditions in vitro, we have incubated cells in the absence of amino acids and serum. Approximately 65-75% of the normal and cancer cell lines tested survived when exposed to nutrient-deprived serum-free medium for 24 hours.

[2] = test system: normal breast epithelial cells (MCF10A); test: as above; type: cell-based; settings: nutrient-deprived serum-free medium, 24 hours
Description: as §1, §2

Atg8 (LC3) = test: Lipidation of Atg8 (Atg8-PE) by Western blotting in starved Saos-2 cells; type: cell-based; settings: Saos-2 cells expressing GFP-Atg8 starved for amino acids for 2-6 h
Excerpt: FIG. 3. Atg-4-targeted compounds suppress the lipidation of Atg8 (LC3) in Saos-2 osteosarcoma cells. The lipidation of Atg8 (Atg8-PE) was examined by Western blotting in fed and starved (medium lacking amino acids and serum) cells and in starved cells treated with 3-methyladenine (3MA), AI-1 and AI-2. The Atg4 compounds were obtained from the National Cancer Institute (NCI) and then tested for their ability to suppress autophagy by observing the presence of autophagosomes in Saos-2 osteosarcoma and MDA-MB468 breast carcinoma cell lines stabling expressing Atg8 tagged with a green fluorescent protein (GFP-Atg8). Upon the onset of autophagy, Atg8 becomes lipidated being anchored to the autophagosome membrane whereby this protein then recruits additional membranes for expanding the size of the vacuoles and thus, regulating the degradative amplitude of autophagy. […] Compared to 70% of the starved cells containing autophagic vacuoles, less than 20% of those starved cells treated with AI-1 or AI-2 contained these vacuoles. These observations were consistent with the negative effects of these compounds on the lipidation of Atg8 (FIG. 3). Saos-2 cells expressing GFP-Atg8 were starved for amino acids for 2-6 h in the absence and presence of 3-methyladenine and the Atg4 compounds. […]

[3] = test system: Saos-2 osteosarcoma and MDA-MB468 breast carcinoma cell lines; test: GFP-Atg8 labeled autophagic vacuoles in nutrient-starved cells stably expressing GFP-Atg8; type: cell-based; settings: starved Saos-2 cells, FIG. 2
Description: FIGS. 2A-2D. Atg-4-targeted drugs decreased the number of Atg8 (LC3)-labeled autophagic vacuoles. Saos-2 osteosarcoma and MDA-MB468 breast carcinoma cells stably expressing GFP-Atg8 were incubated under nutrient fed and starved (St) conditions in the presence and absence of AI-1 and AI-2. The presence GFP-Atg8 labeled autophagic vacuoles appear as dots (arrows) in starved Saos-2 cells (FIG. 2B). Atg8-labeled vacuoles are not observed in fed Saos-2 cells or starved cell treated with AI-1. Almost 70% of the starved cells contained autophagic vacuoles. However, the number of starved cells containing autophagic vacuoles was dramatically reduce upon treatment with AI-1 and AI-2 (FIG. 2D; n=number of cells counted). The Atg4 compounds were obtained from the National Cancer Institute (NCI) and then tested for their ability to suppress autophagy by observing the presence of autophagosomes in Saos-2 osteosarcoma and MDA-MB468 breast carcinoma cell lines stabling expressing Atg8 tagged with a green fluorescent protein (GFP-Atg8). Upon the onset of autophagy, Atg8 becomes lipidated being anchored to the autophagosome membrane whereby this protein then recruits additional membranes for expanding the size of the vacuoles and thus, regulating the degradative amplitude of autophagy. […]

[4] = test system: breast carcinoma MDA-MB468 cells; test: Survival of nutrient-starved cells, crystal violet staining; type: cell-based; settings: MDA-MB468, nutrient-deprived serum-free medium, 24 hours
Description: as §1, §2

[5] = test system: Saos-2 osteosarcoma cells; test: as above; type: cell-based; settings: Saos-2, nutrient-deprived serum-free medium, 24 hours
Description: as §1, §2

Structure (SMILES) | location and state of intracellular P. gingivalis (P. gingivalis) | degradation of endogenous proteins [1] | distribution of autophagic vacuoles (MDA-MB468 cells) | survival of nutrient-starved cells (HuH7 hepatoma cells) | survival of nutrient-starved cells [2] | lipidation of Atg8 (Atg8-PE) (Atg8 (LC3)) | Atg8-labeled vacuoles observed [3] | survival of nutrient-starved cells [4] | survival of nutrient-starved cells [5]
CC(C)OC(=O)Nc1ccc2nc(-c3cscn3)[nH]c2c1 [AI-2, cambendazole] | bacteria in various degraded states were observed in CMPase-positive lysosomes | reduction in the degradation of endogenous proteins | dramatic redistribution of the autophagic vacuoles to a centralized region of the cell | 30 % of controls | only moderately affected | inhibiting the lipidation of Atg8 (LC3) | – | – | –
Cn1cnc(N)c2ncnc1-2 [3-methyladenine, reference compound] | partially degraded bacteria were found in CMPase-positive lysosomes | – | – | – | – | – | – | – | –
S=C(Nc1ccccn1)c1ccccn1 [AI-1, N-2-pyridinyl-2-pyridinecarbothioamide] | bacteria in various degraded states were observed in CMPase-positive lysosomes | reduction in the degradation of endogenous proteins | – | moderate activity | only moderately affected | inhibiting the lipidation of Atg8 (LC3) | not observed | less than 40% | moderate activity
